Measurements reported in US12648948B2, “Methods and compositions for treating cancer” (UNITED STATES GOVERNMENT AS REPRESENTED BY THE DEPARTMENT …, priority 2017, dated 2026).

Legend:
GBM9 intracranial tumors = assay: Orthotopic (intracranial) GBM9 model, survival and bioluminescence imaging; details: erlotinib 50 mg/kg oral gavage and/or thalidomide 150 mg/kg i.p., 10 days; repeated with afatinib
Description: For the orthotropic model, 1×10^5 GBM9 cells expressing firefly luciferase were injected into the right corpus striatum of the brains of 6-8-week-old nude mice using a stereotactic frame. […] The mice were treated with erlotinib 50 mg/kg by oral gavage and/or intraperitoneal (i.p.) injection of 150 mg/kg thalidomide for 10 consecutive days. Bioluminescence imaging (BLI) was performed to record the growth of tumor every 5 days. Kaplan-Maier survival curves were calculated using GraphPad Prism 7.0 software. Mice were monitored and sacrificed when neurological signs appeared or after 40 days.

JNK, Axl and ERK = assay: Signal transduction in subcutaneous GBM9 tumors; type: in vivo, mice
Description: To detect the in vivo levels of TNF, 1×10^6 GBM9 cells were injected into the right flanks of nude mice. When the subcutaneous tumor reached a volume of around 200 mm^3, the mice were treated with erlotinib to monitor the upregulation of TNF protein. The animals were dosed consecutively for 1, 2, 7 or 14 days and then sacrificed. The animals without treatment were considered as control (0-day treatment). Tumor tissues were rinsed in PBS and protein was extracted to analyze the TNF levels using ELISA and also used for western blot. To detect the protein expression in mice brain tumor tissues upon drug treatment, the same procedure was performed in orthotopic models. Additionally, with orthotopic models, mice were divided into four groups (control gavage group, erlotinib group, thalidomide group and erlotinib plus thalidomide, n=3). After 48 hours treatment tumors were harvested and subjected to Western blot and immunostaining.

JNK = assay: Western blot, JNK activation (phosphorylation of JNK) in glioma cells; type: cell-based, human; details: erlotinib; patient derived neurospheres and established GBM cell lines
Description: (§1) Western blot analysis was performed according to standard protocols.

[1] = tested on: NF-κB transcriptional activity; assay: NF-κB luciferase reporter assay; type: cell-based, human; details: erlotinib 24 h, 100 nM GBM9, 1 uM U87EGFRwt; LPS 1 μg/ml
Description: Cells were plated in 48 well dishes to 70%-80% confluence followed by with […] or 3xAP1pGL3 reporter plasmid using lipofectamine 2000. A dual-luciferase reporter assay system was used according to manufacturer's instructions (Promega, Madison WI). Firefly luciferase activity was measured in a luminometer and normalized on the basis of Renilla luciferase activity. Experiments were done in triplicate and 3 independent experiments were done.

TNF = TNF mRNA (qRT-PCR) and TNF ELISA in glioma cells; type: cell-based, human
Description: Total RNA was isolated by TRIzol Reagent (Ambion). cDNA Reverse Transcription were performed by using High-Capacity cDNA Reverse Transcription Kit (Applied Biosystems). PCR primers were synthesized by IDT (Coralville, IA). Each PCR was carried out in triplicate in a 20 μl volume using SYBR Green Master Mix (Applied Biosystems) for 15 minutes at 95° C. for initial denaturing, followed by 40 cycles of 95° C. for 15 s and 60° C. for 60 s in ViiA 7 Real-Time PCR System (Applied Biosystems). At least two independent experiments were done. Values for each gene were normalized to expression levels of GAPDH mRNA.
2×10^6 cells were incubated in serum-free or EGF free medium containing different concentrations of erlotinib or DMSO. After 48 hours, supernatant and cell lysates were collected. Supernatant medium was concentrated 5-10-fold with Pierce protein concentrator (ThermoFisher). TNF protein concentration in supernatant, cell lysates and tissue extracts was determined by ELISA using a commercial TNF detection kit (ThermoFisher) according to manufacturer's instructions. Additionally, GAS6 protein concentration in supernatant was measured by ELISA kit (LifeSpan BioSciences).

[2] = tested on: GBM9 and GBM39 neurospheres; assay: AlamarBlue cell viability assay, patient derived GBM neurospheres; type: cell-based, human; details: 72 h
Description: Cell viability assay was conducted using AlamarBlue cell viability assay kit (ThermoFisher) following manufacturer's protocol. Cells were cultured in Corning 96-well black plates with clear bottom (5000 cells/well). Drugs were added to cells for 72 hour following detection using POLARstar Omega Microplate Reader (excitation at 544 nm and emission at 590 nm) (BMG LABTECH, Germany).

[3] = Toxicity and body weight of treated tumor-bearing mice; details: in combination with thalidomide or SP600125, total of 10 days
Akt, STAT3 = assay: Western blot, Akt and STAT3 activation in glioma cells; type: cell-based, human
Description: as §1

Axl = assay: Western blot, Axl activation (pAxl) in glioma cells; details: erlotinib 48 h; patient derived GBM neurospheres and all cell lines examined
Description: Western blot analysis was performed according to standard protocols. In all experiments, before the addition of EGF or erlotinib established cells were cultured overnight in serum free DMEM and primary GBM neurospheres were EGF starved overnight. Cells not treated with EGF or erlotinib were also serum or EGF starved. EGFR (06-847, 1 μg/ml) antibody was from Millipore. pEGFR-1068 (2236), pERK (4376) ERK (4695), p34 (9251), JNK (9252), STAT3(9139), pAkt (0915) and pSTAT3 (9131) antibodies were from Cell Signaling Technology (Danvers, MA) were used a 1/1000 dilution; TNFR1 (sc-8436), ERK2 (sc-154). Akt (sc-1619), and β-Actin (sc-47778) were from Santa Cruz Biotechnology (Dallas, TX) were used at a concentration of 1 μg/ml. GAS6 (AF885), pAxl (AF2228) and Axl (AF154) were from R&D Biosystems (Minneapolis, MN) were used at a concentration of 1 μg/ml c-JUN antibody (ab31419) was from Abcam (Cambridge, MA) and was used at 2 μg per chromatin IP reaction.

GBM9 cells = assay: Annexin-FACS assay and Caspase 3/7 activation; type: cell-based, human; details: Annexin V flow cytometry and Caspase 3/7 activation
Description: Annexin assay was performed by using Annexin—V-FLUOS Staining kit (Roche applied Science). Cells (1×10^6) were plated in 6 well plates and treated with drugs or vehicle alone. After 72 hours cells were trypsinized and washed 2 times with 1×PBS. The cells were incubated for 15 minutes at room temperature with Propidium Iodide and Annexin—V-FLUOS labeling solution in incubation buffer. Annexin and/or PI positive cells were detected by Flow Cytometry.
Caspase activity in the supernatant was measured using the Caspase-Glo 3/7 Assay (Promega, G8091) following manufacturer's instructions. Briefly, 72 hours after treatments, cells were washed by cold PBS and total cell lysates were prepared. 50 μg of total protein per sample was added per well of a 96 well plate and was incubated with 100 μl Caspase 3/7 reagent for 30 minutes. The luminescence of each sample was measured using a luminometer. All experiments included at least 3 replicates per group and were repeated 3 times.

ERK = assay: Western blot, ERK activation (pERK) in glioma cells; details: GBM9 neurospheres
Description: Western blot analysis was performed according to standard protocols. In all experiments, before the addition of EGF or erlotinib established cells were cultured overnight in serum free DMEM and primary GBM neurospheres were EGF starved overnight. Cells not treated with EGF or erlotinib were also serum or EGF starved.

C#Cc1cccc(Nc2ncnc3cc(OCCOC)c(OCCOC)cc23)c1 [erlotinib]
Survival of mice (GBM9 intracranial tumors): neither erlotinib nor thalidomide alone had a significant effect | Time at which JNK-ERK-Axl activation subsides in GBM xenograft tumors (JNK, Axl and ERK; erlotinib): about 2 weeks | Erlotinib induced activation of JNK, Axl and ERK in mouse tumors (JNK, Axl and ERK; subcutaneous GBM9 tumors, erlotinib 50 mg/kg): peaking around 2-7 days and subsiding by 14 days | JNK activation (phosphorylation of JNK) (JNK): activation of INK | NF-κB reporter / transcriptional activity [1]: does not result in an increase in NF-κB reporter activity | TNF mRNA in GBM622 cells (TNF; GBM622 neurospheres (very low EGFR), erlotinib 100 nM, 24 h): No increase in TNF is detected | TNF mRNA levels (TNF; erlotinib 100 nM (GBM9, GBM39) or 1 μM (U87EGFRwt, U87EGFRvIII)): significant and rapid increase in TNF mRNA levels | TNF protein level (ELISA) (TNF; supernatants of erlotinib treated cells): increase in TNF was confirmed at a protein level | Cell viability, erlotinib alone at low concentration ([2]; erlotinib 100 nM): resistant to EGFR inhibition | Cell viability, erlotinib alone at 1 μM ([2]; erlotinib 1 μM): significant cell death | Short term toxicity [3]: without significant immediate short term toxicity | Akt or STAT3 activation (Akt, STAT3; GBM9 neurospheres, erlotinib 1 μM): did not detect an increase in Akt or STAT3 activation | STAT3 and Akt activation at higher concentration (Akt, STAT3; glioma cells, erlotinib 10 μM or afatinib 10 μM): STAT3 and Akt activation are suppressed | Axl phosphorylation (Axl): phosphorylation of the RTK Axl | Mode of cell death, erlotinib combined with Axl, JNK, ERK or TNF inhibition (GBM9 cells): apoptotic cell death | ERK activation after addition of erlotinib (ERK; erlotinib 1 μM, early time points): decreased after addition of erlotinib | Feedback reactivation of ERK under continued EGFR inhibition (ERK; erlotinib 1 μM or afatinib 100 nM): reactivation of ERK is seen at 24-48 h
